# Laboratory results reported in patent US9340537B2, “Benzamide derivatives for inhibiting the activity of ABL1, ABL2 and BCR-ABL1” (NOVATIS AG, priority 2012, dated 2016).
# Like-named read-outs stand apart in the source and are kept apart here.
# What was measured:
# ABL1 (64-515) [1] = target: T1, ABL1 (64-515) (Homo sapiens (Human), UniProt P00519); test: Radio ABL1 (64-515) radiometric filter-binding kinase assay; type: biochemical; conditions: 20 μM ATP
# Method: Pre-incubation of enzyme with compounds (when stated) was performed by exposing the enzyme to compounds prior to addition of the substrate mixture (ATP and/or peptide substrate). […] Filter-plates were washed 3× with 0.5% H3PO4, followed by addition of 30 μL scintillation cocktail (Microscint, Perkin Elmer) per well and then analysed in a TopCount NXT scintillation counter (Perkin Elmer). Results were expressed as IC50 values.
# [2] = tested on: Ba/F3-BCR-ABL1-T315I cells; test: Proliferation assay Ba/F3-BCR-ABL1-T315I cells; type: cell-based, murine; conditions: Mus musculus
# From the text: (§1) The murine bone marrow-derived cell line Ba/F3 was used to generate the appropriate cell line models. […] These cells are referred to as Ba/F3-WT.
# (§2) To generate Ba/F3 cells that depend on BCR-ABL1 expression for growth and survival, Ba/F3 cells were engineered to express BCR-ABL1 using retroviral transduction with a MSCV based retroviral vector containing a p210 BCR-ABL1expression cassette. […] These cells are referred to as Ba/F3-BCR-ABL-WT. […] These cells are referred to as Ba/F3-BCR-ABL-T315I.
# (§3) Ba/F3-WT cells were maintained in RPMI1640 media with L-glutamine, HEPES (Lonza), 10% FBS (Gibco) and 5 ng/ml IL-3 (Calbiochem). Ba/F3-BCR-ABL1-WT cells and Ba/F3-BCR-ABL1-T315I cells were maintained in RPMI1640 media with L-glutamine, HEPES (Lonza) and 10% FBS (Gibco).
# (§4) For each cell line, the cell density was adjusted to 50 000 cells/mL and 50 μL (2500 cells) added per well of a 384-well assay plate.
# (§5) Test compounds were resuspended in DMSO at a concentration of 10 mM. A serial three-fold dilution of each compound with DMSO was performed in 384-well plates using the Janus Liquid Dispenser (PerkinElmer). Compound was delivered to the assay plates containing 2500 cells in a 50 μL volume via Acoustic delivery from an ATS-100 (EDC).
# (§6) Cells were incubated at 37° C. in a humidified environment with 5% carbon dioxide for 48 hours. Britelite plus solution (Perkin Elmer) was prepared according to the manufacturer's instructions and 25 μL added to each well of the assay plate. […] The degree of luminescence correlates with the number of cells in each well. The effect of each inhibitor concentration can therefore be calculated and IC50 values generated.
# ABL1 (64-515) [3] = target: T1, ABL1 (64-515); test: Caliper ABL1 (64-515) microfluidic mobility shift kinase assay; conditions: read-out: Caliper ABL1 (64-515) IC50
# Ba/F3-BCR-ABL1-WT cells = test: Proliferation assay Ba/F3-BCR-ABL1-WT cells; type: cell-based, murine; conditions: Mus musculus
# From the text: as §1, §2, §3, §4, §5, §6
# BCR-ABL1+KCL-22 cells = test: Acquired resistance in BCR-ABL1+KCL-22 cells in vitro; type: cell-based; conditions: single agent, cells treated every 3-4 days
# [4] = 48 hours, Britelite luminescence, read-out: Ba/F3-BCR-ABL1-T315I IC50
# [5] = 48 hours, Britelite luminescence, read-out: Ba/F3-BCR-ABL1-WT IC50
# T1 sequence (P00519 64-515): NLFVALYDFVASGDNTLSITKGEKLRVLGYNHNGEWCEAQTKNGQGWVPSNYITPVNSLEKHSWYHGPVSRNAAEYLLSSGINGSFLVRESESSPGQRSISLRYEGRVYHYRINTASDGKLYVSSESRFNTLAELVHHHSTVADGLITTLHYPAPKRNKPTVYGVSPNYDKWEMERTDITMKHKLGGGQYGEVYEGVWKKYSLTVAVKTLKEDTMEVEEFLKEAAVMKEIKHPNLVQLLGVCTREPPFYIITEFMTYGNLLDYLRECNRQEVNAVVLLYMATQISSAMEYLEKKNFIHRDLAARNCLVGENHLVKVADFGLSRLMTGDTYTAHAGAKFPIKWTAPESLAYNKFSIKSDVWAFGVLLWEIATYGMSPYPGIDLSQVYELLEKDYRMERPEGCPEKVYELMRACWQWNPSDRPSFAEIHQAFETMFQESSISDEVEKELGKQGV
SMILES,IC50 (ABL1 (64-515) [1]) [nM],"IC50 [2, 4] [µM]",IC50 (ABL1 (64-515) [3]) [nM],IC50 (Ba/F3-BCR-ABL1-WT cells; [5]) [µM],"IC50 ([2]; 48 h, read-out: Ba/F3-BCR-ABL1-T315I IC50 [μM]) [µM]","IC50 (Ba/F3-BCR-ABL1-WT cells; 48 h, read-out: Ba/F3-BCR-ABL1-WT IC50 [μM]) [µM]",time until acquired resistance (BCR-ABL1+KCL-22 cells) [days]
"O=C(Nc1ccc(OC(F)(F)Cl)cc1)c1cnc(N2C[C@H](O)[C@@H](F)C2)c(-c2ccn[nH]2)c1 (relative stereo) [Example 75, N-(4-(Chlorodifluoromethoxy)phenyl)-6-(trans-3-fluoro-4-hydroxypyrrolidin-1-yl)-5-(1H-pyrazol-5-yl)nicotinamide]",3,0.017,0.5,0.0012,–,–,–
"O=C(Nc1ccc(OC(F)(F)F)cc1)c1cnc(N2CC[C@@H](O)C2)c(-c2ccc[nH]2)c1 [Example 6, (R)-6-(3-Hydroxypyrrolidin-1-yl)-5-(1H-pyrrol-2-yl)-N-(4-(trifluoromethoxy)phenyl)nicotinamide]",9,0.106,1.3,0.0045,–,–,–
"O=C(Nc1ccc(OC(F)(F)F)cc1)c1cnc(N2CC[C@@H](O)C2)c(-c2ccoc2)c1 [Example 7, (R)-5-(Furan-3-yl)-6-(3-hydroxypyrrolidin-1-yl)-N-(4-(trifluoromethoxy)phenyl)nicotinamide]",< 3,0.674,–,0.0059,–,–,–
"O=C(Nc1ccc(OC(F)(F)F)cc1)c1cnc(N2CC[C@@H](O)C2)c(-c2cncs2)c1 [Example 10, (R)-6-(3-Hydroxypyrrolidin-1-yl)-5-(thiazol-5-yl)-N-(4-(trifluoromethoxy)phenyl)nicotinamide]",5.3,0.05,0.5,0.0025,–,–,–
"C[C@@]1(O)CCN(c2ncc(C(=O)Nc3ccc(OC(F)(F)F)cc3)cc2-c2ccn[nH]2)C1 [Example 14, (R)-6-(3-Hydroxy-3-methylpyrrolidin-1-yl)-5-(1H-pyrazol-5-yl)-N-(4-(trifluoromethoxy)phenyl)nicotinamide]",–,–,–,–,0.134,0.0048,–
"O=C(Nc1ccc(OC(F)(F)Cl)cc1)c1cnc(N2CC[C@@H](O)C2)c(-c2ccc[nH]2)c1 [Example 22, (R)—N-(4-(Chlorodifluoromethoxy)phenyl)-6-(3-hydroxypyrrolidin-1-yl)-5-(1H-pyrrol-2-yl)nicotinamide]",2.4,0.027,< 0.13,0.0008,–,–,–
"N#Cc1ccc(-c2cc(C(=O)Nc3ccc(OC(F)(F)F)cc3)cnc2N2CC[C@@H](O)C2)[nH]1 [Example 30, (R)-5-(5-Cyano-1H-pyrrol-2-yl)-6-(3-hydroxypyrrolidin-1-yl)-N-(4-(trifluoromethoxy)phenyl)nicotinamide]",6,0.022,0.7,0.0011,–,–,–
"N#Cc1ccc(-c2cc(C(=O)Nc3ccc(OC(F)(F)Cl)cc3)cnc2N2CC[C@@H](O)C2)[nH]1 [Example 45, (R)—N-(4-(Chlorodifluoromethoxy)phenyl)-5-(5-cyano-1H-pyrrol-2-yl)-6-(3-hydroxypyrrolidin-1-yl)nicotinamide]",4,0.013,0.7,0.0006,–,–,–
"O=C(Nc1ccc(OC(F)(F)Cl)cc1)c1cnc(N2CCCC3(CCN3)C2)c(-c2ccn[nH]2)c1 (stereo not shown) [Example 61, N-(4-(Chlorodifluoromethoxy)phenyl)-5-(1H-pyrazol-5-yl)-6-(1,6-diazaspiro[3.5]nonan-6-yl)nicotinamide]",3,1.04,4.5,0.0493,–,–,–
"CC1(O)CN(c2ncc(C(=O)Nc3ccc(OC(F)(F)Cl)cc3)cc2-c2ccn[nH]2)C1 [Example 66, N-(4-(Chlorodifluoromethoxy)phenyl)-6-(3-hydroxy-3-methylazetidin-1-yl)-5-(1H-pyrazol-5-yl)nicotinamide]",1.5,–,0.8,–,–,–,–
"O=C(Nc1ccc(OC(F)(F)Cl)cc1)c1cnc(N2CC3(CNC3)C2)c(-c2ccn[nH]2)c1 [Example 68, N-(4-(Chlorodifluoromethoxy)phenyl)-5-(1H-pyrazol-5-yl)-6-(2,6-diazaspiro[3.3]heptan-2-yl)nicotinamide]",2,–,< 0.13,–,–,–,–
"CC1(O)CN(c2ncc(C(=O)Nc3ccc(OC(F)(F)F)cc3)cc2-c2ncc[nH]2)C1 [Example 69, 6-(3-Hydroxy-3-methylazetidin-1-yl)-5-(1H-imidazol-2-yl)-N-(4-(trifluoromethoxy)phenyl)nicotinamide]",0.2,0.395,0.2,0.0243,–,–,–
"O=C(Nc1ccc(OC(F)(F)F)cc1)c1cnc(N2CC[C@@H](O)C2)c(-c2ncc[nH]2)c1 [Example 70, (R)-6-(3-Hydroxypyrrolidin-1-yl)-5-(1H-imidazol-2-yl)-N-(4-(trifluoromethoxy)phenyl)nicotinamide]",–,0.106,6.4,0.0058,–,–,–
"O=C(Nc1ccc(OC(F)(F)Cl)cc1)c1cnc(N2CC[C@@H](O)C2)c(-c2ncc[nH]2)c1 [Example 71, (R)—N-(4-(Chlorodifluoromethoxy)phenyl)-6-(3-hydroxypyrrolidin-1-yl)-5-(1H-imidazol-2-yl)nicotinamide]",–,0.008,0.4,0.0011,–,–,–
"Cc1cnc(-c2cc(C(=O)Nc3ccc(OC(F)(F)F)cc3)cnc2N2CC[C@@H](O)C2)[nH]1 [Example 72, (R)-6-(3-Hydroxypyrrolidin-1-yl)-5-(5-methyl-1H-imidazol-2-yl)-N-(4-(trifluoromethoxy)phenyl)nicotinamide]",–,0.074,4.2,0.0045,–,–,–
"CN(C)C(=O)c1ccc(-c2cc(C(=O)Nc3ccc(OC(F)(F)Cl)cc3)cnc2N2CC[C@@H](O)C2)[nH]1 [Example 73, (R)—N-(4-(Chlorodifluoromethoxy)phenyl)-5-(5-(dimethylcarbamoyl)-1H-pyrrol-2-yl)-6-(3-hydroxypyrrolidin-1-yl)nicotinamide]",–,0.007,1.1,0.0004,–,–,–
"N[C@H]1CN(c2ccc(C(=O)Nc3ccc(OC(F)(F)Cl)cc3)cc2-c2ccn[nH]2)C[C@@H]1O [Example 76, 4-((3S,4S)-3-Amino-4-hydroxypyrrolidin-1-yl)-N-(4-(chlorodifluoromethoxy)phenyl)-3-(1H-pyrazol-5-yl)benzamide]",3,–,1.4,–,–,–,–
"O=C(Nc1ccc(OC(F)(F)Cl)cc1)c1ccc(N2C[C@H](O)[C@@H](O)C2)c(-c2ccn[nH]2)c1 [Example 77, N-(4-(Chlorodifluoromethoxy)phenyl)-4-((3S,4S)-3,4-dihydroxypyrrolidin-1-yl)-3-(1H-pyrazol-5-yl)benzamide]",–,0.075,0.7,0.0041,–,–,–
"Cc1cc(-c2cc(C(=O)Nc3ccc(OC(F)(F)Cl)cc3)ccc2N2C[C@H](N)[C@@H](O)C2)[nH]n1 [Example 84, 4-((3S,4S)-3-Amino-4-hydroxypyrrolidin-1-yl)-N-(4-(chlorodifluoromethoxy)phenyl)-3-(3-methyl-1H-pyrazol-5-yl)benzamide]",2,–,0.8,–,–,–,–
"O=C(Nc1ccc(OC(F)(F)Cl)cc1)c1cnc(N2CCC(O)CC2)c(-c2ccn[nH]2)c1 [Example 85, N-(4-(Chlorodifluoromethoxy)phenyl)-6-(4-hydroxypiperidin-1-yl)-5-(1H-pyrazol-5-yl)nicotinamide]",2,–,0.7,–,–,–,–
"O=C(Nc1ccc(OC(F)(F)Cl)cc1)c1cnc(N2CCC[C@H](O)C2)c(-c2ccn[nH]2)c1 [Example 86, (S)—N-(4-(Chlorodifluoromethoxy)phenyl)-6-(3-hydroxypiperidin-1-yl)-5-(1H-pyrazol-5-yl)nicotinamide]",4,–,1.5,–,–,–,–
"O=C(Nc1ccc(OC(F)(F)Cl)cc1)c1cnc(N2CCC[C@@H](O)C2)c(-c2ccn[nH]2)c1 [Example 87, (R)—N-(4-(Chlorodifluoromethoxy)phenyl)-6-(3-hydroxypiperidin-1-yl)-5-(1H-pyrazol-5-yl)nicotinamide]",3,–,1.3,–,–,–,–
Cc1cn(-c2cc(NC(=O)c3ccc(C)c(Nc4nccc(-c5cccnc5)n4)c3)cc(C(F)(F)F)c2)cn1 [nilotinib],–,–,–,–,–,–,18 to 21
